In ChEMBL document CHEMBL5143550, “Thiol- and Disulfide-Containing Vancomycin Derivatives Against Bacterial Resistance and Biofilm Formation” (2021):
≈ marks a conversion by molar mass, not a printed value.

Assays:
Assay type in all cases: functional
[1] = tested on: Staphylococcus aureus; experiment: Antibacterial activity against Staphylococcus aureus ATCC 25923 assessed as inhibition of bacterial growth by standard broth microdilution susceptibility method
[2] = tested on: Staphylococcus aureus; experiment: Antibacterial activity against methicillin-resistant Staphylococcus aureus ATCC 43300 assessed as inhibition of bacterial growth by standard broth microdilution susceptibility method
[3] = tested on: Enterococcus faecalis; experiment: Antibacterial activity against VanB-resistant Enterococcus faecalis ATCC 51299 assessed as inhibition of bacterial growth by standard broth microdilution susceptibility method
[4] = tested on: Enterococcus gallinarum; experiment: Antibacterial activity against VanC-resistant Enterococcus gallinarum ATCC 700221 assessed as inhibition of bacterial growth by standard broth microdilution susceptibility method
[5] = tested on: Enterococcus faecalis; experiment: Antibiofilm activity against VanB-resistant Enterococcus faecalis ATCC 51299 assessed as inhibition of biofilm formation in BHIG medium incubated for 24 hrs by resazurin assay
[6] = tested on: Enterococcus faecalis; experiment: Antibiofilm activity against VanB-resistant Enterococcus faecalis ATCC 51299 assessed as inhibition of biofilm formation by measuring decrease in RFU in BHIG medium incubated for 24 hrs by resazurin assay
[7] = tested on: Enterococcus faecalis; experiment: Antibacterial activity against VanB-resistant Enterococcus faecalis ATCC 51299 assessed as inhibition of colony formation in BHIG medium incubated for 24 hrs by resazurin assay
[8] = tested on: Enterococcus faecalis; experiment: Antibacterial activity against VanB-resistant Enterococcus faecalis ATCC 51299 assessed as inhibition of bacterial growth in BHIG medium incubated for 24 hrs by resazurin assay
[9] = tested on: Staphylococcus aureus; experiment: Antibacterial activity against vancomycin-intermediate Staphylococcus aureus ATCC NRS1 assessed as inhibition of bacterial growth by standard broth microdilution susceptibility method
[10] = tested on: Staphylococcus aureus; experiment: Antibacterial activity against heterogenous vancomycin-intermediate Staphylococcus aureus ATCC NRS24 assessed as inhibition of bacterial growth by standard broth microdilution susceptibility method
[11] = tested on: Enterococcus faecium; experiment: Antibacterial activity against VanA-resistant Enterococcus faecium MMX0485 assessed as inhibition of bacterial growth by standard broth microdilution susceptibility method
[12] = tested on: Streptococcus pneumoniae; experiment: Antibacterial activity against […] assessed as inhibition of bacterial growth by standard broth microdilution susceptibility method
[13] = tested on: Clostridioides difficile; experiment: Antibacterial activity against Clostridium difficile ATCC 43255 assessed as inhibition of bacterial growth by standard broth microdilution susceptibility method
[14] = tested on: Moraxella catarrhalis; experiment: Antibacterial activity against Moraxella catarrhalis ATCC 8193 assessed as inhibition of bacterial growth by standard broth microdilution susceptibility method
[15] = tested on: Staphylococcus aureus; experiment: Potency index, ratio of vancomycin MIC to test compound MIC for antibacterial activity against vancomycin-intermediate Staphylococcus aureus ATCC NRS1 assessed as inhibition of bacterial growth by standard broth microdilution susceptibility method
[16] = tested on: Staphylococcus aureus; experiment: Potency index, ratio of vancomycin MIC to test compound MIC for antibacterial activity against heterogenous vancomycin-intermediate Staphylococcus aureus ATCC NRS24 assessed as inhibition of bacterial growth by standard broth microdilution susceptibility method
[17] = tested on: Enterococcus faecium; experiment: Potency index, ratio of vancomycin MIC to test compound MIC for antibacterial activity against VanA-resistant Enterococcus faecium MMX0485 assessed as inhibition of bacterial growth by standard broth microdilution susceptibility method
[18] = tested on: Enterococcus faecalis; experiment: Potency index, ratio of vancomycin MIC to test compound MIC for antibacterial activity against VanB-resistant Enterococcus faecalis ATCC 51299 assessed as inhibition of bacterial growth by standard broth microdilution susceptibility method

SMILES	MIC [1] [µg/mL]	MIC [2] [µg/mL]	MIC [3] [µg/mL]	MIC [4] [µg/mL]	MBIC [5] [µg/mL]	inhibition (INH) [6] [%]	Activity [7] [µg/mL]	inhibition (INH) [8] [%]	MIC [9] [µg/mL]	MIC [10] [µg/mL]	MIC [11] [µg/mL]	MIC [12] [µg/mL]	MIC [13] [µg/mL]	MIC [14] [µg/mL]	Ratio [15]	Ratio [16]	Ratio [17]	Ratio [18]
CN[C@H](CC(C)C)C(=O)N[C@H]1C(=O)N[C@@H](CC(N)=O)C(=O)N[C@H]2C(=O)N[C@H]3C(=O)N[C@H](C(=O)N[C@H](C(=O)NCCOCCNC(=O)CCCCC4CCSS4)c4cc(O)cc(O)c4-c4cc3ccc4O)[C@H](O)c3ccc(c(Cl)c3)Oc3cc2cc(c3O[C@@H]2O[C@H](CO)[C@@H](O)[C@H](O)[C@H]2O[C@H]2C[C@](C)(N)[C@H](O)[C@H](C)O2)Oc2ccc(cc2Cl)[C@H]1O (some centres undefined)	4 (≈ 2.32 µM)	2 (≈ 1.16 µM)	4 (≈ 2.32 µM)	8 (≈ 4.64 µM)	8	97	8	100										
CCCCCCSSCCNC(=O)[C@H]1NC(=O)[C@H]2NC(=O)[C@H](NC(=O)[C@@H]3NC(=O)[C@H](CC(N)=O)NC(=O)[C@H](NC(=O)[C@@H](CC(C)C)NC)[C@H](O)c4ccc(c(Cl)c4)Oc4cc3cc(c4O[C@@H]3O[C@H](CO)[C@@H](O)[C@H](O)[C@H]3O[C@H]3C[C@](C)(N)[C@H](O)[C@H](C)O3)Oc3ccc(cc3Cl)[C@H]2O)c2ccc(O)c(c2)-c2c(O)cc(O)cc21	0.12 (≈ 0.0739 µM)	0.12 (≈ 0.0739 µM)	0.25 (≈ 0.154 µM)	4 (≈ 2.46 µM)	2	100	2	100	0.5 (≈ 0.308 µM)	0.5 (≈ 0.308 µM)	16 (≈ 9.85 µM)	0.06 (≈ 0.0369 µM)	0.5 (≈ 0.308 µM)	2 (≈ 1.23 µM)	16	16	16	16
CN[C@H](CC(C)C)C(=O)N[C@H]1C(=O)N[C@@H](CC(N)=O)C(=O)N[C@H]2C(=O)N[C@H]3C(=O)N[C@H](C(=O)N[C@H](C(=O)NCCSSCCN)c4cc(O)cc(O)c4-c4cc3ccc4O)[C@H](O)c3ccc(c(Cl)c3)Oc3cc2cc(c3O[C@@H]2O[C@H](CO)[C@@H](O)[C@H](O)[C@H]2O[C@H]2C[C@](C)(N)[C@H](O)[C@H](C)O2)Oc2ccc(cc2Cl)[C@H]1O	1 (≈ 0.631 µM)	1 (≈ 0.631 µM)	8 (≈ 5.05 µM)	8 (≈ 5.05 µM)	16	86	16	98	1 (≈ 0.631 µM)	1 (≈ 0.631 µM)	8 (≈ 5.05 µM)	≤ 0.03	0.5 (≈ 0.316 µM)	> 32				
CN[C@H](CC(C)C)C(=O)N[C@H]1C(=O)N[C@@H](CC(N)=O)C(=O)N[C@H]2C(=O)N[C@H]3C(=O)N[C@H](C(=O)N[C@H](C(=O)NCCSSCCNC(=O)CCCCC4CCSS4)c4cc(O)cc(O)c4-c4cc3ccc4O)[C@H](O)c3ccc(c(Cl)c3)Oc3cc2cc(c3O[C@@H]2O[C@H](CO)[C@@H](O)[C@H](O)[C@H]2O[C@H]2C[C@](C)(N)[C@H](O)[C@H](C)O2)Oc2ccc(cc2Cl)[C@H]1O (some centres undefined)	2 (≈ 1.13 µM)	2 (≈ 1.13 µM)	4 (≈ 2.26 µM)	8 (≈ 4.52 µM)	16	100	16	100	2 (≈ 1.13 µM)	2 (≈ 1.13 µM)	> 32	0.25 (≈ 0.141 µM)	0.5 (≈ 0.282 µM)	8 (≈ 4.52 µM)				
CN[C@H](CC(C)C)C(=O)N[C@H]1C(=O)N[C@@H](CC(N)=O)C(=O)N[C@H]2C(=O)N[C@H]3C(=O)N[C@H](C(=O)N[C@H](C(=O)NCCCCCCCCS)c4cc(O)cc(O)c4-c4cc3ccc4O)[C@H](O)c3ccc(c(Cl)c3)Oc3cc2cc(c3O[C@@H]2O[C@H](CO)[C@@H](O)[C@H](O)[C@H]2O[C@H]2C[C@](C)(N)[C@H](O)[C@H](C)O2)Oc2ccc(cc2Cl)[C@H]1O	4 (≈ 2.51 µM)	4 (≈ 2.51 µM)	8 (≈ 5.02 µM)	8 (≈ 5.02 µM)	8	98	8	100	2 (≈ 1.26 µM)	2 (≈ 1.26 µM)	2 (≈ 1.26 µM)	0.5 (≈ 0.314 µM)	4 (≈ 2.51 µM)	8 (≈ 5.02 µM)				
CN[C@H](CC(C)C)C(=O)N[C@H]1C(=O)N[C@@H](CC(N)=O)C(=O)N[C@H]2C(=O)N[C@H]3C(=O)N[C@H](C(=O)N[C@H](C(=O)O)c4cc(O)cc(O)c4-c4cc3ccc4O)[C@H](O)c3ccc(c(Cl)c3)Oc3cc2cc(c3O[C@@H]2O[C@H](CO)[C@@H](O)[C@H](O)[C@H]2O[C@H]2C[C@](C)(N)[C@H](O)[C@H](C)O2)Oc2ccc(cc2Cl)[C@H]1O [VANCOMYCIN]			16 (≈ 11 µM)	8 (≈ 5.52 µM)	64	98	64	100	8 (≈ 5.52 µM)	16 (≈ 11 µM)	> 128	0.12 (≈ 0.0828 µM)	0.12 (≈ 0.0828 µM)	> 32				
CCSSCCNC(=O)[C@H]1NC(=O)[C@H]2NC(=O)[C@H](NC(=O)[C@@H]3NC(=O)[C@H](CC(N)=O)NC(=O)[C@H](NC(=O)[C@@H](CC(C)C)NC)[C@H](O)c4ccc(c(Cl)c4)Oc4cc3cc(c4O[C@@H]3O[C@H](CO)[C@@H](O)[C@H](O)[C@H]3O[C@H]3C[C@](C)(N)[C@H](O)[C@H](C)O3)Oc3ccc(cc3Cl)[C@H]2O)c2ccc(O)c(c2)-c2c(O)cc(O)cc21	1 (≈ 0.638 µM)	1 (≈ 0.638 µM)	1 (≈ 0.638 µM)	8 (≈ 5.1 µM)	32	100	32	100										
CCCCCCCCCCCSSCCNC(=O)[C@H]1NC(=O)[C@H]2NC(=O)[C@H](NC(=O)[C@@H]3NC(=O)[C@H](CC(N)=O)NC(=O)[C@H](NC(=O)[C@@H](CC(C)C)NC)[C@H](O)c4ccc(c(Cl)c4)Oc4cc3cc(c4O[C@@H]3O[C@H](CO)[C@@H](O)[C@H](O)[C@H]3O[C@H]3C[C@](C)(N)[C@H](O)[C@H](C)O3)Oc3ccc(cc3Cl)[C@H]2O)c2ccc(O)c(c2)-c2c(O)cc(O)cc21	1 (≈ 0.59 µM)	1 (≈ 0.59 µM)	0.25 (≈ 0.148 µM)	4 (≈ 2.36 µM)	2	92	2	99	0.5 (≈ 0.295 µM)	1 (≈ 0.59 µM)	2 (≈ 1.18 µM)	0.25 (≈ 0.148 µM)	0.12 (≈ 0.0708 µM)	0.5 (≈ 0.295 µM)	16	16	16	16
CN[C@H](CC(C)C)C(=O)N[C@H]1C(=O)N[C@@H](CC(N)=O)C(=O)N[C@H]2C(=O)N[C@H]3C(=O)N[C@H](C(=O)N[C@H](C(=O)NCCSSc4ccccn4)c4cc(O)cc(O)c4-c4cc3ccc4O)[C@H](O)c3ccc(c(Cl)c3)Oc3cc2cc(c3O[C@@H]2O[C@H](CO)[C@@H](O)[C@H](O)[C@H]2O[C@H]2C[C@](C)(N)[C@H](O)[C@H](C)O2)Oc2ccc(cc2Cl)[C@H]1O	4 (≈ 2.47 µM)	2 (≈ 1.24 µM)	16 (≈ 9.89 µM)	8 (≈ 4.95 µM)	16	99	16	100	4 (≈ 2.47 µM)	4 (≈ 2.47 µM)	8 (≈ 4.95 µM)	0.5 (≈ 0.309 µM)	0.5 (≈ 0.309 µM)	> 32				
CN[C@H](CC(C)C)C(=O)N[C@H]1C(=O)N[C@@H](CC(N)=O)C(=O)N[C@H]2C(=O)N[C@H]3C(=O)N[C@H](C(=O)N[C@H](C(=O)NCCSSCCNC(=O)CCS)c4cc(O)cc(O)c4-c4cc3ccc4O)[C@H](O)c3ccc(c(Cl)c3)Oc3cc2cc(c3O[C@@H]2O[C@H](CO)[C@@H](O)[C@H](O)[C@H]2O[C@H]2C[C@](C)(N)[C@H](O)[C@H](C)O2)Oc2ccc(cc2Cl)[C@H]1O	0.5 (≈ 0.299 µM)	0.5 (≈ 0.299 µM)	2 (≈ 1.2 µM)	4 (≈ 2.39 µM)	8	97	8	100	1 (≈ 0.598 µM)	1 (≈ 0.598 µM)	8 (≈ 4.79 µM)	0.25 (≈ 0.15 µM)	1 (≈ 0.598 µM)	2 (≈ 1.2 µM)				
